Reference: ChEMBL document CHEMBL5143629, “Synthesis and evaluation of dual fatty acid amide hydrolase-monoacylglycerol lipase inhibition and antinociceptive activities of 4-methylsulfonylaniline-derived semicarbazones” (Bioorg Med Chem, 2022)
Active and inactive are the calls of the source.

Tests used:
[1] = tested on: Rattus norvegicus; assay: Antinociceptive activity in CCI surgery-neuropathic pain induced nerve injured rat model assessed as increase in tail flick latency at 30 mg/kg for 60 to 120 mins measured on day 14; assay type: functional, organism-based; conditions: time 60-120 min
[2] = tested on: Rattus norvegicus; assay: Antinociceptive activity in CCI surgery-neuropathic pain induced nerve injured rat model assessed as increase in mechanical ipsilateral paw withdrawal threshold at 30 mg/kg for 30 to 240 mins measured on day 14; assay type: functional, organism-based; conditions: time 30-240 min
[3] = target: T1, Fatty-acid amide hydrolase 1 (Homo sapiens, UniProt O00519); assay: Inhibition of human recombinant FAAH using arachidonoyl as substrate preincubated for 5 mins followed by substrate addition by fluorescence based assay
T1 sequence (O00519 whole entry): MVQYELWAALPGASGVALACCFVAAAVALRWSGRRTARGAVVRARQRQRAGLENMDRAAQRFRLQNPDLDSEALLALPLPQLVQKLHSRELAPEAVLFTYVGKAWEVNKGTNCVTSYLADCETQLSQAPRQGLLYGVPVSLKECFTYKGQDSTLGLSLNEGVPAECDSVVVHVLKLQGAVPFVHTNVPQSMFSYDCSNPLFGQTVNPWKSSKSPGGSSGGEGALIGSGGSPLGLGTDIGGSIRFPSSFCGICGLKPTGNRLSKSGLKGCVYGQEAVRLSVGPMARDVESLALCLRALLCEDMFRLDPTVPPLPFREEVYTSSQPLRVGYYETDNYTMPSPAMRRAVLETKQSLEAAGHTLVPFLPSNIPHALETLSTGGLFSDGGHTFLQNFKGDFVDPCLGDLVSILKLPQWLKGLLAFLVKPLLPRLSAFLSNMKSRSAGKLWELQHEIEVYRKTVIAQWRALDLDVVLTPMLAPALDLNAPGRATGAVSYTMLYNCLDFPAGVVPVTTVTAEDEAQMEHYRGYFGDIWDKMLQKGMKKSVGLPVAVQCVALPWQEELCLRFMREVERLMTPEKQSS

[4] = target: T1, Fatty-acid amide hydrolase 1; assay: Inhibition of recombinant human FAAH incubated for 5 mins followed by substrate addition by cayman fluorescence based multimode microplate reader assay
[5] = target: T2, Monoglyceride lipase (Homo sapiens, UniProt Q99685); assay: Inhibition of human recombinant MAGL using 4-nitrophenyl acetate as substrate preincubated for 5 mins followed by substrate addition by fluorescence based colorimetry assay
T2 sequence (Q99685 whole entry): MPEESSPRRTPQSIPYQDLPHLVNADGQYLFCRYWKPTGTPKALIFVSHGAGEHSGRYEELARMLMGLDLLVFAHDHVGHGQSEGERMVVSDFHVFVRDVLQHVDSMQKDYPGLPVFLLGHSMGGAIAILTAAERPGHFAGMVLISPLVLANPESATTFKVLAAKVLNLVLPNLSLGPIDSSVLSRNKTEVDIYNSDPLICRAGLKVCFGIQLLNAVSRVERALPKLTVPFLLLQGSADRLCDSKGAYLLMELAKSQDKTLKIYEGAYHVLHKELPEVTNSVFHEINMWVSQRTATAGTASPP

[6] = Acute toxicity in rat assessed as neutrophils level at 2000 mg/kg, po measured after 14 days; assay type: organism-based; conditions: in vivo, 336 h, time 14 day
[7] = Cmax in 12 to 16 hrs fasted Wistar rat at 20 mg/kg, po measured after 0.5 to 48 hrs by HPLC analysis; assay type: ADME, organism-based; design: time upper 16 hrs, dose 20 mg/kg, time lower 12 hrs, route po; conditions: in vivo
[8] = MRT (0 to infinity) in 12 to 16 hrs fasted Wistar rat at 20 mg/kg, po measured after 0.5 to 48 hrs by HPLC analysis; assay type: ADME, organism-based; conditions: in vivo, time 12-16 hrs
[9] = Permeability of the compound across blood brain barrier incubated for 18 hrs by UV plate reader based PAMPA assay; assay type: ADME, tissue-based; conditions: read-out: permeability
[10] = Acute toxicity in rat assessed as serum uric acid level at 2000 mg/kg, po measured after 14 days; assay type: organism-based; conditions: in vivo, 336 h, time 14 day
[11] = Acute toxicity in rat assessed as hemoglobin level at 2000 mg/kg, po measured after 14 days; assay type: organism-based; conditions: in vivo, 336 h, time 14 day
[12] = tested on: SH-SY5Y; assay: Neuroprotective activity against LPS-induced cell death in human SH-SY5Y cells assessed as cell viability at 100 uM after 24 hrs by MTT assay; assay type: functional; conditions: read-out: Activity
[13] = Acute toxicity in rat assessed as effect on total bilirubin level at 2000 mg/kg, po measured after 14 days; assay type: organism-based; conditions: in vivo, 336 h, time 14 day
[14] = Acute toxicity in rat assessed as serum cholestrol level at 2000 mg/kg, po measured after 14 days; assay type: organism-based; conditions: in vivo, 336 h, time 14 day
[15] = target: T3, Fatty-acid amide hydrolase 1 (Homo sapiens) (UniProt O00519); assay: Reversible inhibition of FAAH (unknown origin) using arachidonoyl as substrate by jump dilution method; conditions: time <= 60.0 min
T3 sequence (whole entry): T1 sequence (O00519 whole entry)

[16] = AUC(0 to t) in 12 to 16 hrs fasted Wistar rat at 20 mg/kg, po measured after 0.5 to 48 hrs by HPLC analysis; assay type: ADME, organism-based; design: time upper 16 hrs, dose 20 mg/kg, time lower 12 hrs, route po; conditions: in vivo
[17] = Acute toxicity in rat assessed as WBC level at 2000 mg/kg, po measured after 14 days; assay type: organism-based; conditions: in vivo, 336 h, time 14 day
[18] = tested on: SH-SY5Y; assay: Cytotoxicity against human SH-SY5Y cells assessed as cell death upto 100 uM after 24 hrs by MTT assay; assay type: toxicity, cell-based
[19] = Aqueous solubility of compound in PBS at pH 7.4 measured for 20 hrs by HPLC-UV analysis; assay type: physicochemical
[20] = target: T1, Fatty-acid amide hydrolase 1; assay: Non-competitive inhibition of FAAH (unknown origin) using arachidonoyl as substrate by Dixon plot analysis
[21] = Acute toxicity in rat assessed as body weight at 2000 mg/kg, po measured after 14 days; assay type: organism-based; conditions: in vivo, 336 h, time 14 day
[22] = target: T3, Fatty-acid amide hydrolase 1 (Homo sapiens); assay: Non-competitive inhibition of FAAH (unknown origin) assessed as increase in Km at 10 to 40 nM using arachidonoyl as substrate by Lineweaver-Burk plot analysis; conditions: dose 10-40 nM
[23] = Effect on motor coordination in CCI surgery-neuropathic pain induced nerve injured rat model at 20 mg/kg by rotarod test; assay type: toxicity, organism-based; conditions: in vivo
[24] = tested on: Rattus norvegicus; assay: Ex vivo inhibition in rat brain assessed as reduction in FAAH level at 10 to 20 mg/kg, ip incubated for 20 mins in presence of AMC by fluorescence based multimode reader analysis; assay type: functional, organism-based; conditions: dose 10-20 mg/kg
[25] = Acute toxicity in rat assessed as lymphocytes level at 2000 mg/kg, po measured after 14 days; assay type: organism-based; conditions: in vivo, 336 h, time 14 day
[26] = Acute toxicity in female rat assessed as effect on liver histopathology at 2000 mg/kg, po measured after 14 days; assay type: organism-based; conditions: in vivo, 336 h, time 14 day
[27] = Half life in 12 to 16 hrs fasted Wistar rat at 20 mg/kg, po measured after 0.5 to 48 hrs by HPLC analysis; assay type: ADME, organism-based; conditions: in vivo, time 12-16 hrs
[28] = tested on: Rattus norvegicus; assay: Antinociceptive activity in CCI surgery-neuropathic pain induced nerve injured rat model assessed as increase in mechanical ipsilateral paw withdrawal threshold at 5 to 20 mg/kg for 30 to 240 mins measured on day 14; assay type: functional, organism-based; conditions: dose 5-20 mg/kg, time 30-240 min
[29] = Acute toxicity in rat assessed as MPV level at 2000 mg/kg, po measured after 14 days; assay type: organism-based; conditions: in vivo, 336 h, time 14 day
[30] = Acute toxicity in rat assessed as serum triglycerides level at 2000 mg/kg, po measured after 14 days; assay type: organism-based; conditions: in vivo, 336 h, time 14 day
[31] = tested on: SH-SY5Y; assay: Neuroprotective activity against LPS-induced cell death in human SH-SY5Y cells assessed as cell viability at 30 uM after 24 hrs by MTT assay; assay type: functional; conditions: read-out: Activity
[32] = Effect on locomotory activity in CCI surgery-neuropathic pain induced nerve injured rat model at 20 mg/kg by rotarod test; assay type: toxicity, organism-based; conditions: in vivo
[33] = Acute toxicity in rat assessed as SGOT level at 2000 mg/kg, po measured after 14 days; assay type: organism-based; conditions: in vivo, 336 h, time 14 day
[34] = Acute toxicity in rat assessed as RDW level at 2000 mg/kg, po measured after 14 days; assay type: organism-based; conditions: in vivo, 336 h, time 14 day
[35] = target: T4, Monoglyceride lipase (Rattus norvegicus) (UniProt Q8R431); assay: Ex vivo inhibition in rat brain assessed as reduction in MAGL level at 10 to 20 mg/kg, ip incubated for 20 mins in presence of NPA by fluorescence based multimode reader analysis; assay type: functional, organism-based; conditions: dose 10-20 mg/kg
T4 sequence (whole entry): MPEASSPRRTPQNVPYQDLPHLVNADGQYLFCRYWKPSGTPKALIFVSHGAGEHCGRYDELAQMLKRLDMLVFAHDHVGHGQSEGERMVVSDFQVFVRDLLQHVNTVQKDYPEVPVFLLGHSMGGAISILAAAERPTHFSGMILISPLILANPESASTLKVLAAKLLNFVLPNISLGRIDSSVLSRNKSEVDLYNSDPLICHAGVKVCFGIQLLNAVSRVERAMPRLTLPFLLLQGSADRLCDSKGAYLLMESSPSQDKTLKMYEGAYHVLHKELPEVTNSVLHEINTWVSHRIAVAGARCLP

[36] = Tmax in 12 to 16 hrs fasted Wistar rat at 20 mg/kg, po measured after 0.5 to 48 hrs by HPLC analysis; assay type: ADME, organism-based; conditions: in vivo, time 12-16 hrs
[37] = tested on: Rattus norvegicus; assay: Antinociceptive activity in CCI surgery-neuropathic pain induced nerve injured rat model assessed tail flick latency at 5 to 20 mg/kg for 60 to 120 mins measured on day 14; assay type: functional, organism-based; conditions: dose 5-20 mg/kg, time 60-120 min
[38] = Acute toxicity in rat assessed as serum alkaline phosphates level at 2000 mg/kg, po measured after 14 days; assay type: organism-based; conditions: in vivo, 336 h, time 14 day
[39] = Acute toxicity in rat assessed as SGPT level at 2000 mg/kg, po measured after 14 days; assay type: organism-based; conditions: in vivo, 336 h, time 14 day
[40] = Acute toxicity in rat assessed as reduction in food and water consumption at 2000 mg/kg, po measured after 14 days; assay type: organism-based; conditions: in vivo, 336 h, time 14 day
[41] = Acute toxicity in rat assessed as behavioral abnormalities at 2000 mg/kg, po measured after 14 days; assay type: organism-based; conditions: in vivo, 336 h, time 14 day
[42] = target: T3, Fatty-acid amide hydrolase 1 (Homo sapiens); assay: Non-competitive inhibition of FAAH (unknown origin) assessed as decrease in Vmax at 10 to 40 nM using arachidonoyl as substrate by Lineweaver-Burk plot analysis; conditions: dose 10-40 nM

NCC1(CC(=O)O)CCCCC1
Activity [1]: Active | Activity [2]: Active

C/C(=N/NC(=O)Nc1ccc(S(C)(=O)=O)cc1)c1ccc(Cl)cc1
IC50 [3]: 340 nM

O=C(Oc1ccc([N+](=O)[O-])cc1)N1CCN(Cc2cccc(Oc3ccccc3)c2)CC1
IC50 [4]: 2 nM

CS(=O)(=O)c1ccc(NC(=O)N/N=C\c2ccccc2O)cc1
IC50 [3]: 720 nM

C/C(=N/NC(=O)Nc1ccc(S(C)(=O)=O)cc1)c1ccc(Br)cc1Br
IC50 [3]: 135 nM | IC50 [5]: > 10000 nM

CS(=O)(=O)c1ccc(NC(=O)N/N=C\c2ccccc2Cl)cc1
IC50 [3]: 1870 nM

CS(=O)(=O)c1ccc(NC(=O)N/N=C\c2c(Cl)cccc2Cl)cc1
Activity [6]: Non-Toxic | Cmax [7]: 22000 ng/mL | MRT inf [8]: 30 min | Papp at 18 h [9]: 10.2 ×10⁻⁶ cm/s | Activity [10]: Non-Toxic | Activity [11]: Non-Toxic | viability at 100 µM [12]: 80% | Activity [13]: Non-Toxic | Activity [14]: Non-Toxic | inhibition [15]: Active | AUC(0-t) [16]: 8920 ng·h/mL | Activity [17]: Non-Toxic | Activity [18]: Non-Toxic | solubility at 20 h [19]: < 1 µg/mL | Ki [20]: 28 nM | Activity [21]: Non-Toxic | inhibition [22]: Active | Activity [23]: Non-Toxic | Activity [24]: Active | Activity [25]: Non-Toxic | Activity [26]: Non-Toxic | half-life [27]: 34.8 min | Activity [28]: Active | Activity [29]: Non-Toxic | Activity [30]: Non-Toxic | viability at 30 µM [31]: 70% | IC50 [3]: 11 nM | Activity [32]: Non-Toxic | Activity [33]: Non-Toxic | Activity [34]: Non-Toxic | Activity [35]: Active | Tmax [36]: 30 min | Activity [37]: Active | Activity [38]: Non-Toxic | Activity [39]: Non-Toxic | Activity [40]: Non-Toxic | Activity [41]: Non-Toxic | inhibition [42]: Active

COc1ccc(/C=N\NC(=O)Nc2ccc(S(C)(=O)=O)cc2)cc1
Papp at 18 h [9]: 5.1 ×10⁻⁶ cm/s | IC50 [3]: 35 nM
